We go through 2 substances from PMC3625376 (Journal of the American Chemical Society, 2013).

The test system of the experiment is blood glucose in diabetic rats. Nature of the experiment: diabetic rat assay. The format is in vivo. As to conditions: Figure 5 panels C and D.

Take “WT insulin (biosynthetic): wild type (wt) biosynthetic insulin used as positive control”: the “activity in lowering blood glucose in diabetic rats (in words)” value was “fully active”.

Take “[Asp^B10, Lys^B28, Pro^B29]-insulin [DKP insulin (biosynthetic)]”: the “activity in lowering blood glucose in diabetic rats (in words)” value is recorded as “fully active”.
